{"source": "ChEMBL document CHEMBL5726851", "about": "“2-oxo-imidazopyridines as reversible BTK inhibitors and uses thereof” (2019)", "target": "Tyrosine-protein kinase BTK (Homo sapiens, UniProt Q06187)", "sequence (Q06187 whole entry)": "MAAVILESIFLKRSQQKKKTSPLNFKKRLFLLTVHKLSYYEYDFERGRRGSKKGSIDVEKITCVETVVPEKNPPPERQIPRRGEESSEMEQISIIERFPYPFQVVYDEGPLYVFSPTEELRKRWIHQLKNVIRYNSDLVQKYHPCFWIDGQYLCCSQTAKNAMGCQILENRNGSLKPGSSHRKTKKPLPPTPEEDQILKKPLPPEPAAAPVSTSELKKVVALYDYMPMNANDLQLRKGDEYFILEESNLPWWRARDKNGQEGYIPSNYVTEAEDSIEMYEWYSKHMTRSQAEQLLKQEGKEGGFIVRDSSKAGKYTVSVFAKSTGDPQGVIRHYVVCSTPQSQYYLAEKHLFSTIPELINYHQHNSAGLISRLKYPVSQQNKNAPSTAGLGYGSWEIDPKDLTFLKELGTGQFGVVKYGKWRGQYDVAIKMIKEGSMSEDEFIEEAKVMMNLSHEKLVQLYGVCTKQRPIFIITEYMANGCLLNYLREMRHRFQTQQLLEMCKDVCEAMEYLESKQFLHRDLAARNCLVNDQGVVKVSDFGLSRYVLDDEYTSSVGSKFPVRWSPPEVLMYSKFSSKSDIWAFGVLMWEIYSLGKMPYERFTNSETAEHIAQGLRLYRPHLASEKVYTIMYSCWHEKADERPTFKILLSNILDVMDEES", "test": "Microfluidic Off-Chip Mobility Shift Assay Protocol for Potency Assessment Against BTK Enzyme: Briefly, 2.5× stocks of full-length human BTK (08-080) from CarnaBio USA, Inc., Natick, Mass., 1.6×ATP and appropriate kinKDR peptide substrate (FITC-AHA-[…]-NH2; developed in-house) were prepared in kinase reaction buffer consisting of 25 mM MgCl2, 0.015% Brij-35 (30%), 100 mM HEPES, pH 7.5, and 10 mM DTT. 5 uL of enzyme buffer and 7.5 uL of ATP/kinKDR peptide substrate mix were added to Matrix (#115304) 384-well, sterile, polypropylene plates (Thermo Fisher Scientific, Hudson, N.H.) with 125 nL of serially diluted compounds prepared in 100% DMSO, and incubated for 90 min. at 27° C. Following the incubation period, reactions were stopped by adding 60 uL stop buffer consisting of 100 mM HEPES, pH 7.5, 0.015% Brij-35 (30%), 0.277% Coating Reagent #3 (Caliper Life Sciences, Mountain View, Calif.), 5% DMSO. Stopped reactions were monitored at −2 PSI, −3000 V/−700 V in a LabChip 3000 plate reader from Caliper Life Sciences, a PerkinElmer Company (Hopkinton, Mass.), and the activity was measured by off-chip mobility shift assay measuring the charge/mass difference between substrate and product resulting from peptide phosphorilation. IC50 and efficacy were determined by plotting log [Inhibitor] vs. % Activity in GeneData Screener (Basel, Switzerland)."}
{"smiles": "CC(C)(C)c1cc(C(=O)NC2CCCCc3cc(-c4ccnc5[nH]c(=O)[nH]c45)ccc32)on1", "note": "(stereo unspecified)", "values": [{"measurement": "IC50", "value": "< 0.01", "unit": "µM"}]}
